In assay [1] the test system is pAKT in BT474 cells. The assay can be described thus: Cell-based pAKT HTRF assay in BT474 cells. To be noted: BT474 cells, 4 hr incubation, read-out: pAKT inhibition IC50 in BT474 cells. In short, it runs like this: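 pAKT was measured by HTRF after a 4 hr compound exposure in BT474 cells (DMEM, 10% FBS, 0.25% DMSO), using 9 concentrations from 3 μM in 3-fold steps. Cell lysates were incubated with the Eu cryptate/d2 antibody pair at room temperature for 4 to 24 h. The plate was then read at 320 nm excitation and 615 nm emission.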

The target in assay [2] is Cys242 in human PIK3CA (157-299) (Homo sapiens (Human), UniProt P42336). Kind of assay: Covalent modification assay using MALDI-TOF MS. It is filed as biochemical. To be noted: 4 h reaction time point. The essentials:
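Covalent adduct formation was read by linear-mode MALDI-TOF with sinapinic acid matrix, reported as modified-protein peak height divided by total protein peak heights. Reactions held PIK3CA (157-299) at 1 or 3.33 μM in HEPES/NaCl/MgCl2 buffer, pH 7.3, sampled after 15 min to 4 h at room temperature.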

[3] abbreviates: 3.33 μM protein target, 1:7.5 protein to compound ratio (compounds 1-852).
[4] abbreviates: 1 μM protein target, 1:5 protein to compound ratio (compounds 853-1279).

Read-outs that look alike come from different tables or passages of the source.

Sequence of Cys242 in human PIK3CA (157-299) (P42336 157-299): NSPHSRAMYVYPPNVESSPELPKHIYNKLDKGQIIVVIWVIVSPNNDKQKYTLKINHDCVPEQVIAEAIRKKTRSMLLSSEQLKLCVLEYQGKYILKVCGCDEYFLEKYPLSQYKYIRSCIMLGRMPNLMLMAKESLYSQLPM

As usually defined, the IC50 is the midpoint of a concentration-inhibition curve. On to `C=CC(=O)N1CCn2nc(-c3nc(-c4ccc5ncn(C)c5c4)c4ccsc4c3-c3c(F)cc(F)cc3OCCO)cc2[C@@H]1C` [Compound 645], for which the IC50 in assay [1] (Compounds 10-999) was under 100 nM. The “% of modification” value in assay [2] (setting [3]) is “A (percent of modification of PIK3CA protein ≥75%)”.

In the case of `C=C(F)C(=O)N1CCn2nc(-c3nc(-c4cnc5c(c4)CN(C)CC5)c4ccsc4c3-c3c(F)cc(F)cc3OC(C)C)cc2C1` [Compound 340], the IC50 in assay [1] (Compounds 10-999) is under 100 nM. For the same compound, the “% of modification” value in assay [2] (setting [3]) is given as “B (50%<percent of modification <75%)”.

For `C=CC(=O)N1CC(n2cc(-c3nc(N4CC5(CCNCC5)CC4=O)c4ccsc4c3-c3ccc(F)cc3OCCOC)cn2)C1` [Compound 106], the IC50 in assay [1] (Compounds 10-999) is over 3000 nM. The “% of modification” value in assay [2] (setting [3]) was “C (25%≤percent of modification <50%)”.

With `C=CC(=O)N1CCc2ncc(-c3nc(-c4ccc5ncn(C)c5c4)c4ccsc4c3-c3c(F)cc(F)cc3OCCOC)cc2C1` [Compound 403], the IC50 in assay [1] (Compounds 10-999) is under 100 nM. For the same compound, in assay [2] (setting [3]), the “% of modification” value was “A (percent of modification of PIK3CA protein ≥75%)”.

For the compound `C=CC(=O)N1CCn2nc(-c3nc(-c4cncc(CCN(C)C)c4)c4ccsc4c3-c3c(F)cc(F)cc3OCCOC)cc2C1C` (centres unmarked) [Compound 1245], the IC50 in assay [1] (Compounds 1000-1279) is under 100 nM. Further, in assay [2] (setting [4]), the “% of modification” value was “A (percent of modification of PIK3CA protein ≥75%)”.

With `C=CC(=O)N1CCn2nc(-c3nc(-c4ccnc(N(C)C)c4)c4ccsc4c3-c3c(F)cc(F)cc3OCCOC)cc2[C@@H]1C` [Compound 965], in assay [1] (Compounds 10-999), the IC50 lay in the range of 100 to 1000 nM. Also, the “% of modification” value in assay [2] (setting [4]) is given as “A (percent of modification of PIK3CA protein ≥75%)”.

Consider `C=CC(=O)N1CCn2nc(-c3nc(-c4ccc(OC5CN(C)C5)cc4)c4ccsc4c3-c3c(F)cc(F)cc3OCCO)cc2C1C` (centres unmarked) [Compound 1198], for which the IC50 in assay [1] (Compounds 1000-1279) was under 100 nM. Further, the “% of modification” value in assay [2] (setting [4]) was “A (percent of modification of PIK3CA protein ≥75%)”.

In the case of `C=CC(=O)N1CCn2nc(-c3nc(-c4cccc(CN(C)C)c4)c4ccsc4c3-c3c(F)cc(F)cc3OCCOC)cc2C1C` (centres unmarked) [Compound 1061], the IC50 in assay [1] (Compounds 1000-1279) is under 100 nM. The “% of modification” value in assay [2] (setting [4]) is “A (percent of modification of PIK3CA protein ≥75%)”.

With `C=CC(=O)N1CCn2nc(-c3nc(-c4cnn(C)c4)c4ccsc4c3-c3ccc(F)cc3OCCOC)nc2C1` [Compound 191], the IC50 in assay [1] (Compounds 10-999) is under 100 nM. Further, the “% of modification” value in assay [2] (setting [3]) is “A (percent of modification of PIK3CA protein ≥75%)”.

Consider `C=CC(=O)N1CCc2ncc(-c3nc(-c4ccc5c(c4)CNC5=O)c4ccsc4c3-c3c(F)cc(F)cc3OCCOC)cc2C1` [Compound 379], for which the IC50 in assay [1] (Compounds 10-999) is under 100 nM. Besides, in assay [2] (setting [3]), the “% of modification” value is listed as “A (percent of modification of PIK3CA protein ≥75%)”.

Take `C=CC(=O)N1CCc2nc(-c3nc(-c4ccc(C(C)(C)N)cc4)c4ccsc4c3-c3c(F)cc(F)cc3OCCOC)sc2C1` [Compound 443]: the IC50 in assay [1] (Compounds 10-999) fell in the range of 100 to 1000 nM. For the same compound, in assay [2] (setting [3]), the “% of modification” value was “A (percent of modification of PIK3CA protein ≥75%)”.

Take `C=CC(=O)N1CCn2nc(-c3nc(-c4ccc5c(c4)CCN(C(C)C)C5)c4ccsc4c3-c3ccc(F)cc3OCCOC)nc2C1` [Compound 185, 1-[2-[7-[4-fluoro-2-(2-methoxyethoxy)phenyl]-4-(2-isopropyl-3,4-dihydro-1H-isoquinolin-6-yl)thieno[3,2-c]pyridin-6-yl]-6,8-dihydro-5H-[1,2,4]triazolo[1,5-a]pyrazin-7-yl]prop-2-en-1-one]: the IC50 in assay [1] (Homo sapiens, BT-474, Compounds 10-999) is under 100 nM. Moreover, the “% of modification” value in assay [2] (setting [3]) was “A (percent of modification of PIK3CA protein ≥75%)”.

`C=CC(=O)N1CCn2nc(-c3nc(-c4cnn(C)c4)c4ccsc4c3-c3ccc(F)cc3OC(C)C)c(C)c2C1` [Compound 320]: in assay [1] (Compounds 10-999), the IC50 is under 100 nM. In addition, in assay [2] (setting [3]), the “% of modification” value was “A (percent of modification of PIK3CA protein ≥75%)”.

(Values after US20250230138A1, “COMPOUNDS HAVING A T-STRUCTURE FORMED BY AT LEAST FOUR CYCLES FOR USE IN THE TREATMENT OF CANCER AND OTHER INDICATIONS” (TheRas, Inc., priority 2022, published 2025).)
